A compilation of properties of binary mixtures (doi:10.1021/acs.jpcb.5b11900)

Assay: xn = mol fraction of the nth substance listed
Conditions: 101 kPa

In the case of `CC[NH3+].O=[N+]([O-])[O-]` + CC[NH2+]CC.O=[N+]([O-])[O-], the electrical conductivity (288.15 K, x2 = 0) is reported as 1.62 S/m, the electrical conductivity (293.15 K, x2 = 0) is reported as 1.93 S/m and the viscosity (293.15 K, x2 = 0) is reported as 43.5 mPa·s. The electrical conductivity (298.15 K, x2 = 0) was 2.25 S/m, the viscosity (298.15 K, x2 = 0) was 36.5 mPa·s and the electrical conductivity (303.15 K, x2 = 0) was 2.6 S/m. It also gave a viscosity (303.15 K, x2 = 0) of 31 mPa·s, an electrical conductivity (308.15 K, x2 = 0) of 2.97 S/m and a viscosity (308.15 K, x2 = 0) of 26.5 mPa·s. It also gave an electrical conductivity (313.15 K, x2 = 0) of 3.37 S/m, a viscosity (313.15 K, x2 = 0) of 22.8 mPa·s and an electrical conductivity (318.15 K, x2 = 0) of 3.78 S/m. The viscosity (318.15 K, x2 = 0) was 20 mPa·s, the viscosity (328.15 K, x2 = 0) was 15.6 mPa·s and the viscosity (338.15 K, x2 = 0) was 12.5 mPa·s. The viscosity (348.15 K, x2 = 0) was 10.2 mPa·s and the viscosity (353.15 K, x2 = 0) was 9.21 mPa·s.

With `CC[NH3+].O=[N+]([O-])[O-]` + CC[NH+](CC)CC.O=[N+]([O-])[O-] the electrical conductivity (303.15 K, x2 = 0) was 2.6 S/m, the viscosity (303.15 K, x2 = 0) was 31 mPa·s and the electrical conductivity (308.15 K, x2 = 0) was 2.97 S/m. It also gave a viscosity (308.15 K, x2 = 0) of 26.5 mPa·s, an electrical conductivity (318.15 K, x2 = 0) of 3.78 S/m and a viscosity (318.15 K, x2 = 0) of 20 mPa·s. The viscosity (328.15 K, x2 = 0) was 15.6 mPa·s, the viscosity (333.15 K, x2 = 0) was 13.8 mPa·s and the viscosity (338.15 K, x2 = 0) was 12.5 mPa·s. It also gave a viscosity (343.15 K, x2 = 0) of 11.2 mPa·s, a viscosity (348.15 K, x2 = 0) of 10.2 mPa·s and a viscosity (353.15 K, x2 = 0) of 9.2 mPa·s.

With `CCCC[NH3+].O=[N+]([O-])[O-]` + CC[NH3+].O=[N+]([O-])[O-] the electrical conductivity (288.15 K, x2 = 0.5) was 0.646 S/m, the electrical conductivity (293.15 K, x2 = 0.25) was 0.507 S/m and the viscosity (293.15 K, x2 = 0.25) was 104.4 mPa·s. It also gave an electrical conductivity (293.15 K, x2 = 0.5) of 0.792 S/m, a viscosity (293.15 K, x2 = 0.5) of 82.3 mPa·s and an electrical conductivity (293.15 K, x2 = 0.75) of 1.2 S/m. It also gave a viscosity (293.15 K, x2 = 0.75) of 62 mPa·s, an electrical conductivity (298.15 K, x2 = 0.25) of 0.615 S/m and a viscosity (298.15 K, x2 = 0.25) of 83.7 mPa·s. The electrical conductivity (298.15 K, x2 = 0.5) was 0.951 S/m, the viscosity (298.15 K, x2 = 0.5) was 66.6 mPa·s and the electrical conductivity (298.15 K, x2 = 0.75) was 1.43 S/m. The viscosity (298.15 K, x2 = 0.75) was 50.6 mPa·s, the electrical conductivity (303.15 K, x2 = 0.25) was 0.742 S/m and the viscosity (303.15 K, x2 = 0.25) was 68.1 mPa·s. The electrical conductivity (303.15 K, x2 = 0.5) was 1.13 S/m, the viscosity (303.15 K, x2 = 0.5) was 54.7 mPa·s and the electrical conductivity (308.15 K, x2 = 0.5) was 1.33 S/m. It also gave a viscosity (308.15 K, x2 = 0.5) of 45.6 mPa·s, an electrical conductivity (308.15 K, x2 = 0.75) of 1.95 S/m and a viscosity (308.15 K, x2 = 0.75) of 35.5 mPa·s. For the same molecule, the electrical conductivity (313.15 K, x2 = 0.25) was 1.03 S/m, the viscosity (313.15 K, x2 = 0.25) was 47 mPa·s and the electrical conductivity (313.15 K, x2 = 0.5) was 1.54 S/m. For the same molecule, the viscosity (313.15 K, x2 = 0.5) was 38.5 mPa·s, the electrical conductivity (313.15 K, x2 = 0.75) was 2.24 S/m and the viscosity (313.15 K, x2 = 0.75) was 30.6 mPa·s. For the same molecule, the electrical conductivity (318.15 K, x2 = 0.25) was 1.2 S/m, the viscosity (318.15 K, x2 = 0.25) was 39.5 mPa·s and the electrical conductivity (318.15 K, x2 = 0.5) was 1.77 S/m. It also gave a viscosity (318.15 K, x2 = 0.5) of 32.7 mPa·s, an electrical conductivity (318.15 K, x2 = 0.75) of 2.55 S/m and a viscosity (318.15 K, x2 = 0.75) of 26 mPa·s. For the same molecule, the electrical conductivity (323.15 K, x2 = 0.5) was 2.02 S/m, the viscosity (323.15 K, x2 = 0.5) was 28.1 mPa·s and the electrical conductivity (323.15 K, x2 = 0.75) was 2.88 S/m. For the same molecule, the viscosity (323.15 K, x2 = 0.75) was 22.6 mPa·s, the viscosity (328.15 K, x2 = 0.25) was 29 mPa·s and the viscosity (328.15 K, x2 = 0.5) was 24.4 mPa·s. It also gave a viscosity (328.15 K, x2 = 0.75) of 19.8 mPa·s, a viscosity (333.15 K, x2 = 0.5) of 21.3 mPa·s and a viscosity (333.15 K, x2 = 0.75) of 17.6 mPa·s. The viscosity (338.15 K, x2 = 0.5) was 18.7 mPa·s, the viscosity (343.15 K, x2 = 0.5) was 16.6 mPa·s and the viscosity (343.15 K, x2 = 0.75) was 13.8 mPa·s. The viscosity (348.15 K, x2 = 0.25) was 17.2 mPa·s, the viscosity (348.15 K, x2 = 0.5) was 14.8 mPa·s and the viscosity (348.15 K, x2 = 0.75) was 12.4 mPa·s. It also gave a viscosity (353.15 K, x2 = 0.75) of 11.3 mPa·s.

Work on `CCC[NH3+].O=[N+]([O-])[O-]` + CC[NH3+].O=[N+]([O-])[O-] yielded an electrical conductivity (288.15 K, x2 = 0.5) of 0.991 S/m, an electrical conductivity (298.15 K, x2 = 0.5) of 1.42 S/m and a viscosity (298.15 K, x2 = 0.5) of 53 mPa·s. The electrical conductivity (308.15 K, x2 = 0.5) was 1.93 S/m, the viscosity (308.15 K, x2 = 0.5) was 37.1 mPa·s and the electrical conductivity (313.15 K, x2 = 0.5) was 2.22 S/m. The viscosity (313.15 K, x2 = 0.5) was 31.6 mPa·s, the electrical conductivity (323.15 K, x2 = 0.5) was 2.85 S/m and the viscosity (323.15 K, x2 = 0.5) was 23.5 mPa·s. The viscosity (328.15 K, x2 = 0.5) was 20.5 mPa·s, the viscosity (333.15 K, x2 = 0.5) was 18.1 mPa·s and the viscosity (338.15 K, x2 = 0.5) was 16 mPa·s. The viscosity (343.15 K, x2 = 0.5) was 14.3 mPa·s and the viscosity (348.15 K, x2 = 0.5) was 12.8 mPa·s.

Work on `CC[NH3+].O=[N+]([O-])[O-]` + CC[N+](CC)(CC)CC.O=[N+]([O-])[O-] yielded an electrical conductivity (293.15 K, x2 = 0) of 1.93 S/m, a viscosity (293.15 K, x2 = 0) of 43.5 mPa·s and an electrical conductivity (298.15 K, x2 = 0) of 2.25 S/m. For the same molecule, the viscosity (298.15 K, x2 = 0) was 36.5 mPa·s, the electrical conductivity (303.15 K, x2 = 0) was 2.6 S/m and the viscosity (303.15 K, x2 = 0) was 31 mPa·s. The electrical conductivity (308.15 K, x2 = 0) was 2.97 S/m, the viscosity (308.15 K, x2 = 0) was 26.5 mPa·s and the electrical conductivity (313.15 K, x2 = 0) was 3.37 S/m. For the same molecule, the viscosity (313.15 K, x2 = 0) was 22.8 mPa·s, the electrical conductivity (318.15 K, x2 = 0) was 3.78 S/m and the viscosity (318.15 K, x2 = 0) was 20 mPa·s. For the same molecule, the electrical conductivity (323.15 K, x2 = 0) was 4.22 S/m, the viscosity (323.15 K, x2 = 0) was 17.6 mPa·s and the viscosity (328.15 K, x2 = 0) was 15.6 mPa·s. The viscosity (333.15 K, x2 = 0) was 13.8 mPa·s, the viscosity (343.15 K, x2 = 0) was 11.2 mPa·s and the viscosity (348.15 K, x2 = 0) was 10.2 mPa·s. For the same molecule, the viscosity (353.15 K, x2 = 0) was 9.2 mPa·s.
